Source: US20040224958A1, “Pyridopyrimidinone derivatives for treatment of neurodegenerative disease” (priority 2000, published 2004)

What was measured:
cdk4/D = cdk4/D (Homo sapiens, UniProt P11802); assay: Cyclin-Dependent Kinase 4 (cdk4) Assay; type: biochemical; conditions: read-out: cdk4/D IC50
Cdk5/p25 = Cdk5/p25 (Homo sapiens, UniProt Q00535); assay: Cyclin-Dependent Kinase 5 High Throughput Screening (cdk5-HTS) Assay; type: biochemical; conditions: high throughput screen
In short: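 Cdk5/p25 (1.0 μg/mL) phosphorylates GST-RbCOOH (20 μg/mL) in 50 mM Tris pH 7.4 with 10 mM MgCl2 and 20 μM ATP spiked with [γ33P]ATP, 30 min at room temperature. After EDTA stop, substrate captured on glutathione-coated plates; 33P incorporation counted by scintillation; IC50 determined.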

cdk2/cyclinE = cdk2/cyclinE (Homo sapiens, UniProt P24941); assay: Cyclin-Dependent Kinase Assay cdk2/cyclinE; conditions: cdk2/E IC50
Procedure: Cyclin-Dependent Kinase Assays (cdk2/cyclinE, cdk2/cyclinA, cdc2/cyclinB)
All components except the ATP were added to the wells, and the plate was placed on a plate mixer for 2 minutes. The reaction was begun by addition of [^32P]ATP, and the plate was incubated at 25° C. for 15 minutes. The reaction was terminated by addition of 0.1 mL of 20% TCA. The plate was kept at 4° C. for at least 1 hour to allow the substrate to precipitate. The wells were then washed five times with 0.2 mL of 10% TCA and ^32p incorporation determined with a beta plate counter (Wallac Inc., Gaithersburg, Md.).

cdk2/cyclinA = cdk2/cyclinA (Homo sapiens, UniProt P24941); assay: Cyclin-Dependent Kinase Assay cdk2/cyclinA; conditions: cdk2/A IC50
cdc2/cyclinB = cdc2/cyclinB (Homo sapiens, UniProt P06493); assay: Cyclin-Dependent Kinase Assay cdc2/cyclinB
cdc2/cyclinB, sequence (P06493 whole entry): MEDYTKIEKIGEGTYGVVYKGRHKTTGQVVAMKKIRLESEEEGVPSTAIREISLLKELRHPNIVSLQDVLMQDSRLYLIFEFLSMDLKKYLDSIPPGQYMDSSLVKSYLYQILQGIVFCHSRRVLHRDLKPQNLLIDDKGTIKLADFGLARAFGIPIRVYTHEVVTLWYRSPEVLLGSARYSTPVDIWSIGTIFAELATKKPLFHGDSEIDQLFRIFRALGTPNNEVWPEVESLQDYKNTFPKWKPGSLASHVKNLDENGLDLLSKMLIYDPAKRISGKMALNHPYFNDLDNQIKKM
cdc2/cyclinB, sequence (P14635 whole entry, further chain): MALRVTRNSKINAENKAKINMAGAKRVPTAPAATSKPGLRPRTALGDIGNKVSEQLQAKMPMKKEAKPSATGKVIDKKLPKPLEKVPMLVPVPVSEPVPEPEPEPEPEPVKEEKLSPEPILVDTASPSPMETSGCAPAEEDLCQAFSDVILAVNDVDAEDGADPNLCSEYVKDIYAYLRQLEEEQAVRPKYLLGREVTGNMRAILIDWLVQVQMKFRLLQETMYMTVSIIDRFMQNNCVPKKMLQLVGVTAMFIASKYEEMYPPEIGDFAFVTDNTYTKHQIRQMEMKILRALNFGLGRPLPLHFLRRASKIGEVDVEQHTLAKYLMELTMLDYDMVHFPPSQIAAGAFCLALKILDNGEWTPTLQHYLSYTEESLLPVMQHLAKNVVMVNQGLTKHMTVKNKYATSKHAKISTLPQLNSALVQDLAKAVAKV

cdk4/D, sequence (P11802 whole entry): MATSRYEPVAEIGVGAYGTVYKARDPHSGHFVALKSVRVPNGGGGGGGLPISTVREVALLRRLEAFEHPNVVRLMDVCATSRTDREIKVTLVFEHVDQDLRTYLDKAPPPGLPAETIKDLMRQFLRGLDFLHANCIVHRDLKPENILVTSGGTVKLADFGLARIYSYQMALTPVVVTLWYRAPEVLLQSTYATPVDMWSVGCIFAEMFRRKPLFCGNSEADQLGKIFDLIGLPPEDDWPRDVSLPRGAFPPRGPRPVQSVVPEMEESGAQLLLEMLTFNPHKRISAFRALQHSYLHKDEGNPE
cdk4/D, sequence (P24385 whole entry, further chain): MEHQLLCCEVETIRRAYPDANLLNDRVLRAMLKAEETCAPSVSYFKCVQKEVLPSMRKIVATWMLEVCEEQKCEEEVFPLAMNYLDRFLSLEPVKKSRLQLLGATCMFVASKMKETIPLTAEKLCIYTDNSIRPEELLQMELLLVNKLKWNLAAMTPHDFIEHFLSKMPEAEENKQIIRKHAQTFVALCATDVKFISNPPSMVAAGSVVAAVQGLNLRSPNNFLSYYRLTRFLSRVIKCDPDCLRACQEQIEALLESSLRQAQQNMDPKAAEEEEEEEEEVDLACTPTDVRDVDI

Structure (SMILES) | IC50 (cdk4/D) | IC50 (Cdk5/p25) | IC50 (cdk2/cyclinE) | IC50 (cdk2/cyclinA) | IC50 (cdc2/cyclinB)
CCC(CC)n1c(=O)ccc2cnc(Nc3ccc4[nH]c5ccccc5c4c3)nc21 [Example 516, 2-(9H-Carbazol-3-ylamino)-8-(I-ethyl-propyl)-8H-pyrido[2,3-d]pyrimidin-7-one] | 28 nM | 33 nM | 95 nM | 280 nM | 62 nM
CCCn1c(=O)ccc2cnc(Nc3ccc(C(F)(F)F)cc3)nc21 [Example 361, 8-Propyl-2-(4-trifluoromethyl-phenylamino)-8H-pyrido[2,3-d]pyrimidin-7-one] | 350 nM | 150 nM | 440 nM | 310 nM | 180 nM
O=c1ccc2cnc(Nc3ccc(O)c([N+](=O)[O-])c3)nc2n1C1CCCC1 [Example 551, 8-Cyclopentyl-2-(4-hydroxy-3-nitro-phenylamino)-8H-pyrido[2,3-d]pyrimidin-7-one] | 290 nM | 55 nM | 16 nM | 14 nM | 36 nM
CCC(CC)n1c(=O)ccc2cnc(Nc3cc(Cl)c(O)c(Cl)c3)nc21 [Example 497, 2-(3,5-Dichloro-4-hydroxy-phenylamino)-8-(1-ethyl-propyl)-8H-pyrido[2,3-d]pyrimidin-7-one] | 480 nM | 55.5 nM | 80 nM | 160 nM | 46.5 nM
CCC(C)n1c(=O)ccc2cnc(Nc3ccc(C)c(I)c3)nc21 (stereo not shown) [Example 465] | 100 nM | 8.8 nM | 56 nM | 260 nM | 76 nM
Cn1c(=O)ccc2cnc(Nc3ccc(NC(=O)OC(C)(C)C)cc3)nc21 [Example 615, [4-(8-Methyl-7-oxo-7,8-dihydro-pyrido[2,3-d]pyrimidin-2-ylamino)-phenyl]-carbamic acid tert-butyl ester] | 3000 nM | 1140 nM | 1530 nM | 3600 nM | 1760 nM
O=c1ccc2cnc(Nc3cc(F)c(F)c(F)c3)nc2n1CC1CC1 [Example 588, 8-Cyclopropylmethyl-2-(3,4,5-trifluoro-phenylamino)-8H-pyrido[2,3-d]pyrimidin-7-one] | 2600 nM | 260 nM | 100 nM | 670 nM | 710 nM
CCC(CC)n1c(=O)ccc2cnc(Nc3ccc(Br)c(C(F)(F)F)c3)nc21 [Example 488, 2-(4-Bromo-3-trifluoromethyl-phenylamino)-8-(1-ethyl-propyl)-8H-pyrido[2,3-d]pyrimidin-7-one] | 2240 nM | 124 nM | 494 nM | 1980 nM | 446 nM
CCC(C)n1c(=O)ccc2cnc(Nc3ccc(C)c(C)c3)nc21 (stereo not shown) [Example 476, 8-sec-Butyl-2-(3,4-dimethyl-phenylamino)-8Hi-pyrido[2,3-d]pyrimidin-7-one] | 230 nM | 31 nM | 200 nM | 160 nM | 170 nM
CCCCn1c(=O)ccc2cnc(Nc3ccccc3)nc21 [Example 364, 8-Butyl-2-phenylamino-8H-pyrido[2,3-d]pyrimidin-7-one] | 240 nM | 87.5 nM | 60.3 nM | 255 nM | 200 nM
CCCCn1c(=O)ccc2cnc(Nc3ccc(F)cc3F)nc21 [Example 368, 8-Butyl-2-(2,4-difluoro-phenylamino)-8H-pyrido[2,3-d]pyrimidin-7-one] | 3010 nM | 723 nM | 836 nM | 3060 nM | 1360 nM
CCC(C)n1c(=O)ccc2cnc(Nc3cc(F)cc(F)c3)nc21 (stereo not shown) [Example 472, 8-sec-Butyl-2-(3,5-difluoro-phenylamino)-8H-pyrido[2,3-d]pyrimidin-7-one] | 370 nM | 52 nM | 200 nM | 150 nM | 250 nM
CCC(C)n1c(=O)ccc2cnc(Nc3cc(OC)cc(C(F)(F)F)c3)nc21 (stereo not shown) [Example 463, 8-sec-Butyl-2-(3-methoxy-5-trifluoromethyl-phenylamino)-8H-pyrido[2,3-d]pyrimidin-7-one] | 250 nM | 180 nM | 660 nM | 2000 nM | 300 nM
Cc1cc(C)cc(Nc2ncc3ccc(=O)n(C4CCCC4)c3n2)c1 [Example 544, 8-Cyclopentyl-2-(3,5-dimethyl-phenylamino)-8H-pyrido[2,3-d]pyrimidin-7-one] | 120 nM | 23 nM | 82 nM | 350 nM | 85 nM
CCC(CC)n1c(=O)ccc2cnc(Nc3ccc(C#N)cc3)nc21 [Example 484] | 187 nM | 40.8 nM | 136 nM | 363 nM | 192 nM
N#Cc1ccc(Nc2ncc3ccc(=O)n(C4CCCC4)c3n2)cc1 [Example 531, 4-(8-Cyclopentyl-7-oxo-7,8-dihydro-pyrido[2,3-d]pyrimidin-2-ylamino)-benzonitrile] | 51 nM | 50 nM | 100 nM | 74 nM | 170 nM
CCn1c(=O)ccc2cnc(Nc3ccc4[nH]ccc4c3)nc21 [Example 621, 8-Ethyl-2-(1H-indol-5-ylamino)-8H-pyrido[2,3-d]pyrimidin-7-one] | 230 nM | 250 nM | 400 nM | 925 nM | 540 nM
COc1ccc(Nc2ncc3ccc(=O)n(C(C)C)c3n2)cc1F [Example 422, 2-(3-Fluoro-4-methoxy-phenylamino)-8-isopropyl-8H-pyrido[2,3-d]pyrimidin-7-one] | 66 nM | 9.7 nM | 170 nM | 170 nM | 160 nM
CCCn1c(=O)ccc2cnc(Nc3cccc(C(F)(F)F)c3)nc21 [Example 313, 8-Propyl-2-(3-trifluoromethyl-phenylamino)-8H-pyrido[2,3-d]pyrimidin-7-one] | 3040 nM | 309 nM | 334 nM | 1480 nM | 360 nM
CCCn1c(=O)ccc2cnc(Nc3ccc4c(c3)C(C)C(C)N4)nc21 (stereo not shown) [Example 356, 2-(2,3-Dimethyl-2,3-dihydro-1H-indol-5-ylamino)-8-propyl-8H-pyrido[2,3-d]pyrimidin-7-one] | 290 nM | 61 nM | 510 nM | 470 nM | 410 nM
CCCCn1c(=O)ccc2cnc(Nc3ccc(OC)cc3)nc21 [Example 385, 8-Butyl-2-(4-methoxy-phenylamino)-8H-pyrido[2,3-d]pyrimidin-7-one] | 1140 nM | 130 nM | 150 nM | 320 nM | 155 nM
CCC(CC)n1c(=O)ccc2cnc(Nc3cccc([N+](=O)[O-])c3)nc21 [Example 498, 8-(1-Ethyl-propyl)-2-(3-nitro-phenylamino)-8H-pyrido[2,3-d]pyrimidin-7-one] | 170 nM | 68 nM | 47 nM | 200 nM | 49.5 nM
CC(=O)Nc1cc(Nc2ncc3ccc(=O)n(C(C)C)c3n2)ccc1C#N [Example 424, N-[2-Cyano-5-(8-isopropyl-7-oxo-7,8-dihydro-pyrido[2,3-d]pyrimidin-2-ylamino)-phenyl]-acetamide] | 100 nM | 39 nM | 360 nM | 460 nM | 520 nM
CCC(CC)n1c(=O)ccc2cnc(Nc3ccc(F)cc3F)nc21 [Example 483, 2-(2,4-Difluoro-phenylamino)-8-(1-ethyl-propyl)-8H-pyrido[2,3-d]pyrimidin-7-one] | 1330 nM | 169 nM | 354 nM | 1670 nM | 731 nM
CCCn1c(=O)ccc2cnc(Nc3ccc(Br)c(C)c3)nc21 [Example 360, 2-(4-Bromo-3-methyl-phenylamino)-8-propyl-8H-pyrido[2,3-d]pyrimidin-7-one] | 390 nM | 86 nM | 990 nM | 1000 nM | 340 nM
O=c1ccc2cnc(Nc3ccc4[nH]nnc4c3)nc2n1C1CCCC1 [Example 537, 2-(1H-Benzotriazol-5-ylamino)-8-cyclopentyl-8H-pyrido[2,3-d]pyrimidin-7-one] | 42 nM | 12.3 nM | 8.5 nM | 25.5 nM | 49.5 nM
O=c1[nH]c2cc(Nc3ncc4ccc(=O)n(C5CCCC5)c4n3)ccc2o1 [Example 554, 8-Cyclopentyl-2-(2-oxo-2,3-dihydro-benzoxazol-5-ylamino)-8H-pyrido[2,3-d]pyrimidin-7-one] | 230 nM | 32 nM | 152 nM | 148 nM | 169 nM
CCCn1c(=O)ccc2cnc(Nc3ccccc3)nc21 [Example 309, 2-Phenylamino-8-propyl-8H-pyrido[2,3-d]pyrimidin-7-one] | 357 nM | 145 nM | 157 nM | 420 nM | 425 nM
CCC(CC)n1c(=O)ccc2cnc(Nc3ccc(Br)c(Cl)c3)nc21 [Example 507, 2-(4-Bromo-3-chloro-phenylamino)-8-(1-ethyl-propyl)-8H-pyrido[2,3-d]pyrimidin-7-one] | 150 nM | 64 nM | 310 nM | 1300 nM | 330 nM
